{
  "source": "patent US20130078351A1",
  "about": "“COMPOUNDS AND METHODS FOR ENHANCING SALTY TASTE” (Monell Chemical Senses Center, priority 2010, published 2013)",
  "key": {"[1]": {"biological_target": "T1, Epithelial Sodium Channel (ENaC) subunits delta/beta/gamma (Homo sapiens, UniProt P51168+P51170+P51172)", "T1 construct": "expressed in transfected cells; host or cells: Xenopus laevis oocytes injected with cRNA", "T1 sequence (P51172 1-802)": "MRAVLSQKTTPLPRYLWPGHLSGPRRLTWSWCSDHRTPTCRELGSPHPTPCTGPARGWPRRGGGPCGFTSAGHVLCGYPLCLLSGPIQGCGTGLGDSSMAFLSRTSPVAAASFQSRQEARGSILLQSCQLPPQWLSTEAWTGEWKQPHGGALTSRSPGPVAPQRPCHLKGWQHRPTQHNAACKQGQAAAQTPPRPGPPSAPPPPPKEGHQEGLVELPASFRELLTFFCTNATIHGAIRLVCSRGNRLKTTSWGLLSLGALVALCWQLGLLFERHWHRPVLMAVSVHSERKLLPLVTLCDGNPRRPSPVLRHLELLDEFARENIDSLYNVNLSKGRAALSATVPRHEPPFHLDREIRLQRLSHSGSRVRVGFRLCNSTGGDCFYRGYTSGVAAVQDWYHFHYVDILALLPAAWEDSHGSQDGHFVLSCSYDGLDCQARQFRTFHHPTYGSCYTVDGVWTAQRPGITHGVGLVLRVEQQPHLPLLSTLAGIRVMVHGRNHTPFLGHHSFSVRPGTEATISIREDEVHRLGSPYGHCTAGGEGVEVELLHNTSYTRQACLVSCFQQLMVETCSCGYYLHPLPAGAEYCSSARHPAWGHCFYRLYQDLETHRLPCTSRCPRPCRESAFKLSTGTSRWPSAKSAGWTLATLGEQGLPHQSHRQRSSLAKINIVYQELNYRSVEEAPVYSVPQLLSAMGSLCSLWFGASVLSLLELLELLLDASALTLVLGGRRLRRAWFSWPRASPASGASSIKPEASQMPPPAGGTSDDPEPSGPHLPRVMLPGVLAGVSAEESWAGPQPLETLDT", "T1 sequence (P51168 1-640)": "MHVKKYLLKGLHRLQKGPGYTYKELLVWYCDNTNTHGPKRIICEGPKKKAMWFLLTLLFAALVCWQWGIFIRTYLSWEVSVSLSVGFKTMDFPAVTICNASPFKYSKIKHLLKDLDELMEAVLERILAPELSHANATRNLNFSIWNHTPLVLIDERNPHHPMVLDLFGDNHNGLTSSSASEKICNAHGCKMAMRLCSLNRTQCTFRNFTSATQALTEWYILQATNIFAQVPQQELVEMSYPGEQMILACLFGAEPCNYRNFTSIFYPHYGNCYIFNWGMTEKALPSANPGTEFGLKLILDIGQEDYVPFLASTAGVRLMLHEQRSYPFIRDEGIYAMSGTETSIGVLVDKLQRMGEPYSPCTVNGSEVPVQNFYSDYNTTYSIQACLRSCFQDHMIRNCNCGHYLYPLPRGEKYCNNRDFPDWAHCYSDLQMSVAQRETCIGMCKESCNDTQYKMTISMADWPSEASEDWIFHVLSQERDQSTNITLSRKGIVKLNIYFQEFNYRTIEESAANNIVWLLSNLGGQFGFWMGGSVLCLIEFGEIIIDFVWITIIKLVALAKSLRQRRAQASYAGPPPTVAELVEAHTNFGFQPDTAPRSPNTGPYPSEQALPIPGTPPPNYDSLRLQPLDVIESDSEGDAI", "T1 sequence (P51170 1-649)": "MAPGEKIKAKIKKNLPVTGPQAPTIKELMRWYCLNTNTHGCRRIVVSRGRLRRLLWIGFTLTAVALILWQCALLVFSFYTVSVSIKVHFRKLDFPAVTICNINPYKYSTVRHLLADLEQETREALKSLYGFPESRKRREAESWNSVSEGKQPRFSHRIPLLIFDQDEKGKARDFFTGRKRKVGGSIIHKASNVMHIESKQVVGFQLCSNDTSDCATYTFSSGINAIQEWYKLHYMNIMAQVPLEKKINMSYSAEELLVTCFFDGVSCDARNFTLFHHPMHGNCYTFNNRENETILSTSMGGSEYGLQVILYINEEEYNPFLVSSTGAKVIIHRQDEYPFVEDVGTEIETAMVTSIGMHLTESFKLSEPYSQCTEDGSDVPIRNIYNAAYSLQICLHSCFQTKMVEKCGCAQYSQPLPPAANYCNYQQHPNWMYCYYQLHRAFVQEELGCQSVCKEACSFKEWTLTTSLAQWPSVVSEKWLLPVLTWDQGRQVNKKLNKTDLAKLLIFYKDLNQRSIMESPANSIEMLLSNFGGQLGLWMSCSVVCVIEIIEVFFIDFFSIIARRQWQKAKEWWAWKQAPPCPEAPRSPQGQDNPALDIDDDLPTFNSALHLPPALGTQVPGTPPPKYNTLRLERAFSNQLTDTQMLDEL", "assay": "Testing in Xenopus oocytes expressing ENaC (inward sodium current recording)", "format": "cell-based", "details": "oocyte expressing delta", "protocol": "The frog, Xenopus laevis, produces oocytes that are particularly obliging in permitting a foreign gene to be incorporated into its protein translation system. The egg then makes this foreign protein encoded by the injected complimentary RNA (cRNA). Oocytes are harvested when at stage 5 or 6, from female Xenopus and defolliculated (using trypsin) and placed in low sodium culture medium. After overnight culture the egg is injected with the cRNA of the protein(s) of interest.\nThere is evidence that one of the major “receptors” of salty taste is the ENaC. This channel functions as a heterotrimer, a complex of three different peptides. The transfected eggs are then cultured for 4 to 6 days. Depending upon the endpoint of the study, all three subunits are expressed into one cell or one subunit is expressed per cell. The internal machinery of the cell places the ENaC into the plasma membrane. These preparations can be used as follows: • 1. Two Electrode Voltage Clamp (TEVC) across the entire oocyte is the most direct method for detecting ion flux through the ENaC, but it will respond to any ion movement, making it less desirable for precise analyses, but very useful as an initial screen. • 2. Patch clamp is used to record movement of very few ions through very few channels. […]"}, "human taste": {"test_system": "human taste", "assay": "Psychophysical assessment of salty taste enhancing properties", "format": "in vivo", "protocol": "121 subjects participated in this study. They were familiar with the taste of the 5 modalities (sweet, bitter, umami, sour, and salty), and the use of a modality—specific task. Each subject was presented with 5 cups, each having 10 ml of fluid, plus a large amount of water as a rinse before and in between each sampling. Subjects were told to hold the sample in their mouth for several seconds before making a judgment. Subjects sampled and rated all five solutions, then repeated the study. Subjects rated intensity and modality. The samples tested were • 1. 50 mM NaCl • 2. 75 mM NaCl • 3. N-(2-hydroxyethyl)-4-methylpentanamide at 20 ppm • 4. 50mM NaCl plus 20 ppm N-(2-hydroxyethyl)-4-methylpentanamide • 5. 75 mM NaCl plus 20 ppm N-(2-hydroxyethyl)-4-methylpentanamide\nThe results of this study are depicted in FIG. 1. The X-axis of FIG. 1 provides the identity of the five solutions that were rated and the Y-axis provides the Geometric Mean saltiness intensity ratings. Error bars are Geometric Standard Errors. […] It was slightly bitter tasting with an average bitterness intensity of 3 (data not shown). N-(2-hydroxyethyl)-4-methylpentanamide enhanced the saltiness of 50 mM NaCl by more than 100% and the saltiness of 75 mM NaCl by approximately 35%. Consistency among subjects was high as indicated by the error bars."}},
  "data": [
    {"compound": "CC(C)CCC(=O)NCCO", "note": "[N-(2-hydroxyethyl)-4-methylpentanamide]", "values": [
      {"measurement": "reversibility of inward current", "setting": "[1]", "result": "completely reversible"},
      {"measurement": "effect on sodium currents (inward current) in oocytes", "setting": "[1]; successive addition of increasing (nanomolar) concentrations, from baseline state", "result": "enhancement of sodium currents"},
      {"measurement": "enhancement of saltiness of 50 mM NaCl", "setting": "human taste; 50 mM NaCl plus 20 ppm compound, geometric mean saltiness intensity ratings", "result": "more than 100%"},
      {"measurement": "enhancement of saltiness of 75 mM NaCl", "setting": "human taste; 75 mM NaCl plus 20 ppm compound, geometric mean saltiness intensity ratings", "result": "approximately 35%"},
      {"measurement": "saltiness of its own (saltiness intensity rating)", "setting": "human taste; compound alone at 20 ppm, 121 subjects", "result": "almost no saltiness of its own"},
      {"measurement": "average bitterness intensity", "setting": "human taste; compound alone at 20 ppm, data not shown", "result": 3}
    ]}
  ]
}
